Test results from US10022352B2, “Modulators of ATP-binding cassette transporters” (Vertex Pharmaceuticals Incorporated, priority 2006, dated 2018).
Read-outs that look alike come from different tables or passages of the source.

How the values were obtained:
[1] = molecular target: ΔF508-CFTR (Homo sapiens (Human), UniProt P13569, DEL508-508); assay: Membrane potential optical assay, identification of correction compounds; type: cell-based
Text: Membrane potential optical methods for assaying ΔF508-CFTR modulation properties of compounds.
The assay utilizes fluorescent voltage sensing dyes to measure changes in membrane potential using a fluorescent plate reader (e.g., FLIPR II, Molecular Devices, Inc.) as a readout for increase in functional ΔF508-CFTR in NIH 3T3 cells. The driving force for the response is the creation of a chloride ion gradient in conjunction with channel activation by a single liquid addition step after the cells have previously been treated with compounds and subsequently loaded with a voltage sensing dye.
Identification of Correction Compounds
To identify small molecules that correct the trafficking defect associated with ΔF508-CFTR; a single-addition HTS assay format was developed. Assay Plates containing cells are incubated for ˜2-4 hours in tissue culture incubator at 37° C., 5% CO2, 90% humidity. Cells are then ready for compound exposure after adhering to the bottom of the assay plates.
The cells were incubated in serum-free medium for 16-24 hrs in tissue culture incubator at 37° C., 5% CO2, 90% humidity in the presence or absence (negative control) of test compound. The cells were subsequently rinsed 3× with Krebs Ringers solution and loaded with a voltage sensing redistribution dye. To activate ΔF508-CFTR, 10 μM forskolin and the CFTR potentiator, genistein (20 μM), were added along with Cl^−-free medium to each well. The addition of Cl^−-free medium promoted Cl^− efflux in response to ΔF508-CFTR activation and the resulting membrane depolarization was optically monitored using voltage sensor dyes.
Bath #1: (in mM) NaCl 160, KCl 4.5, CaCl2 2, MgCl2 1, HEPES 10, pH 7.4 with NaOH.
free bath solution: Chloride salts in Bath Solution #1 are substituted with gluconate salts.
NIH3T3 fibroblasts stably expressing ΔF508-CFTR are used for optical measurements of membrane potential. The cells are maintained at 37° C. in 5% CO2 and 90% humidity in Dulbecco's modified Eagle's medium supplemented with 2 mM glutamine, 10% fetal bovine serum, 1×NEAA, β-ME, 1× pen/strep, and 25 mM HEPES in 175 cm^2 culture flasks. For all optical assays, the cells were seeded at ˜20,000/well in 384-well matrigel-coated plates and cultured for 2 hrs at 37° C. before culturing at 27° C. for 24 hrs. for the potentiator assay. For the correction assays, the cells are cultured at 27° C. or 37° C. with and without compounds for 16-24 hours. Electrophysiological Assays for assaying ΔF508-CFTR modulation properties of compounds.

[2] = Solubility in water; type: physicochemical

ΔF508-CFTR, sequence (P13569 other isoform, or with tags, fused parts or gaps del F508-F508): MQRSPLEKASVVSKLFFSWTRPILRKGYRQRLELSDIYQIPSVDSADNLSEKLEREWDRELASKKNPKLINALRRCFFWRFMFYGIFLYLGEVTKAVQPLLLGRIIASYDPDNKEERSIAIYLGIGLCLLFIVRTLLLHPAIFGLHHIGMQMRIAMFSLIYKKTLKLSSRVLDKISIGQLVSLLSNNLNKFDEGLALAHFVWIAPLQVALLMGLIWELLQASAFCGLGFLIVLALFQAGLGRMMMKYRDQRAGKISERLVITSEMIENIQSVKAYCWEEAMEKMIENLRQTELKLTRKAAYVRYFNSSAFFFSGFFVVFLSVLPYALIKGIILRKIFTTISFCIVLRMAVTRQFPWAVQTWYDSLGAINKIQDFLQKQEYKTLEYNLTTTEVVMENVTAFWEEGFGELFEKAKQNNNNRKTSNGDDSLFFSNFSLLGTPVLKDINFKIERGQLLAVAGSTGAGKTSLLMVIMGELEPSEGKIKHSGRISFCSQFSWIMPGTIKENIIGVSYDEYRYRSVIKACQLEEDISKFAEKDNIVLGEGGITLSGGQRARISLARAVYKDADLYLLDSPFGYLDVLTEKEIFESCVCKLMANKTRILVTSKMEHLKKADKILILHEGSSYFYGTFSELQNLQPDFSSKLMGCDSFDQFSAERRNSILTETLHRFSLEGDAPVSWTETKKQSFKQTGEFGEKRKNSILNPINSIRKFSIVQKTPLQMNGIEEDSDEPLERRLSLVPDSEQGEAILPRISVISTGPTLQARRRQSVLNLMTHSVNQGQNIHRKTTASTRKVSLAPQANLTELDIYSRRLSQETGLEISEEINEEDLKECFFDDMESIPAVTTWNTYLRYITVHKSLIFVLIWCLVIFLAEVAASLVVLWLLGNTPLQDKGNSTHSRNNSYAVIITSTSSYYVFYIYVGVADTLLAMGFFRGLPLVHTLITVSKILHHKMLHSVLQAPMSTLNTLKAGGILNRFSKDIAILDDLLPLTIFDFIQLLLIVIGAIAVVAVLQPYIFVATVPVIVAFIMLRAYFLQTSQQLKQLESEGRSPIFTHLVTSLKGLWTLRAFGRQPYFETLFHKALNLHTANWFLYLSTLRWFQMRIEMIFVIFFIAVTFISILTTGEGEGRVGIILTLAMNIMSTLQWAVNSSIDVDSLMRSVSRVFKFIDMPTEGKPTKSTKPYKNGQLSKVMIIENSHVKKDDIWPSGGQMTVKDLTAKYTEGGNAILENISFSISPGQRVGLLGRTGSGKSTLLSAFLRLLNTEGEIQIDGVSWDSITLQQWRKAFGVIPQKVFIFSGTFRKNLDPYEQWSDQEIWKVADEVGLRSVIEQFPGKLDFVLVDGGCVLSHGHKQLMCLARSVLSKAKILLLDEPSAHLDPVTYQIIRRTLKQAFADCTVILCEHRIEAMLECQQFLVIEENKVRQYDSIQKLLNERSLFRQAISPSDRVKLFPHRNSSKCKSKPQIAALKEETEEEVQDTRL

Structure (SMILES) | EC50 ([1]; read-out: Binned EC50) | Emax ([1]; read-out: Binned Max Efficacy) | EC50 ([1]; read-out: EC50) | Emax ([1]; read-out: Max Efficacy) | solubility [2] | Binned Max Efficacy [1] | Max Efficacy [1]
CC(C)(C)c1cc2cc(NC(=O)C3(c4ccc5c(c4)CCC5)CC3)ccc2n1C[C@@H](O)CO [Compound 307] | < 2000 nM | > 100% | 981 nM | 160% | – | – | –
CC1(C)CCn2c1cc1cc(NC(=O)C3(c4ccc5c(c4)OC(F)(F)O5)CC3)c(F)cc12 [Compound 314] | < 2000 nM | > 100% | 228 nM | 124% | – | – | –
CC(C)(CCOC[C@@H](O)CO)c1cc2cc(NC(=O)C3(c4ccc5c(c4)OC(F)(F)O5)CC3)c(F)cc2n1C[C@@H](O)CO [Compound 308] | 2000 to 5000 nM | > 100% | 3100 nM | 100% | – | – | –
CC(C)(CO)c1cc2cc(NC(=O)C3(c4ccc5c(c4)OC(F)(F)O5)CC3)c(F)cc2n1C[C@@H](O)CO [Compound 315] | < 2000 nM | > 100% | 272 nM | 106% | – | – | –
CC(C)(C)c1cc(C(C)(C)C)c(NC(=O)c2c[nH]c3ccccc3c2=O)cc1O [Compound B, N-(2,4-di-tert-butyl-5-hydroxyphenyl)-4-oxo-1,4-dihydroquinoline-3-carboxamide] | – | – | – | – | < 0.05 µg/mL | – | –
CC(C)(CCO)c1cc2cc(NC(=O)C3(c4ccc5c(c4)OC(F)(F)O5)CC3)c(F)cc2n1C[C@@H](O)CO [Compound 311] | < 2000 nM | > 100% | 81.8 nM | 126% | – | – | –
CC(C)(CCOC[C@@H](O)CO)c1cc2cc(NC(=O)C3(c4ccc5c(c4)OC(F)(F)O5)CC3)c(F)cc2[nH]1 [Compound 316] | < 2000 nM | > 100% | 285 nM | 126% | – | – | –
CC(C)(C)c1cc2cc(NC(=O)C3(c4ccc(O)c(O)c4)CC3)ccc2n1C[C@@H](O)CO [Compound 321] | < 2000 nM | 25 to 100% | 1810 nM | 76% | – | – | –
CC(C)(C)c1cc2cc(NC(=O)C3(c4ccc5c(c4)OCO5)CC3)c(F)cc2n1C[C@@H](O)CO [Compound 310] | < 2000 nM | – | 160 nM | – | – | +++ (“+++” means >100%) | 120.5%
CC(C)(C)c1cc2c(C#N)c(NC(=O)C3(c4ccc5c(c4)OC(F)(F)O5)CC3)ccc2n1CCO [Compound 312] | < 2000 nM | > 100% | 181 nM | 118% | – | – | –
CC(C)(CO)c1cc2cc(NC(=O)C3(c4ccc5c(c4)OC(F)(F)O5)CC3)c(F)cc2[nH]1 [Compound 320] | 2000 to 5000 nM | 25 to 100% | 4320 nM | 94% | – | – | –
COc1ccc(C2(C(=O)Nc3ccc4[nH]c(C(C)(C)C)cc4c3)CC2(C)C)cc1 (stereo not shown) [Compound 317] | 2000 to 5000 nM | 25 to 100% | 4520 nM | 65.5% | – | – | –
CC(C)(C)c1cc2c(C#N)c(NC(=O)C3(c4ccc5c(c4)OC(F)(F)O5)CC3)ccc2[nH]1 [Compound 313] | < 2000 nM | > 100% | 284 nM | 102% | – | – | –
CC(C)(C)c1cc2cc(NC(=O)C3(c4ccc5c(c4)OCO5)CC3)c(F)cc2n1C[C@@H](O)CO [Compound 318] | < 2000 nM | > 100% | 65.9 nM | 132% | – | – | –
CN(C)CCn1c(C(C)(C)C)cc2cc(NC(=O)C3(c4ccc5c(c4)OC(F)(F)O5)CC3)c(F)cc21 [Compound 309] | < 2000 nM | – | 38.1 nM | – | – | +++ (“+++” means >100%) | 122%
COc1ccc(C2(C(=O)Nc3ccc4c(c3)cc(C(C)(C)C)n4C[C@@H](O)CO)CC2(C)C)cc1 (stereo partly shown) [Compound 319] | < 2000 nM | > 100% | 39.1 nM | 126% | – | – | –
